# Test results as given in patent publication US20110301194A1, “Method for Determining Treatment Efficacy” (ArQule, Inc., priority 2010, published 2011).
# System: various cancers
# Assay: Anti-proliferative effect of combinations, in vitro and in vivo
# Excerpt: These cancers include, but are not limited to, lung cancer, small cell lung cancer, non-small cell lung cancer, colon cancer, breast cancer, pancreatic cancer, prostate cancer, renal cancer, cervical cancer, brain cancer, gastric/stomach cancer, uterine cancer, intestinal cancer, hepatic cancer, chronic myelogenous leukemia, melanoma, ovarian cancer, translocation-associated renal cell carcinoma (RCC), alveolar soft part sarcoma (ASPS), clear cell sarcoma (CCS), and hepatocellular carcinoma. The anti-proliferative effects of these combinational treatments are increased/enhanced in cell proliferative disorders and cancers in which the effected cells constitutively express or over-express c-Met. In addition, synergistic anti-proliferative effects are shown by (−)-trans-3-(5,6-dihydro-4H-pyrrolo[3,2,1-ij]quinolin-1-yl)-4-(1H-indol-3-yl) pyrrolidine-2,5-dione in combination with sorafenib in breast cancer, cervical cancer, lung cancer, small cell lung cancer, non-small cell lung cancer, melanoma, colon cancer, pancreatic cancer, renal cancer and gastric/stomach cancer; by (−)-trans-3-(5,6-dihydro-4H-pyrrolo[3,2,1-ij]quinolin-1-yl)-4-(1H-indol-3-yl)pyrrolidine-2,5-dione in combination with sunitinib in gastric/stomach cancer; by (−)-trans-3-(5,6-dihydro-4H-pyrrolo[3,2,1-ij]quinolin-1-yl)-4-(1H-indol-3-yl)pyrrolidine-2,5-dione in combination with erlotinib in lung cancer, small cell lung cancer, non-small cell lung cancer and colon cancer; and by (−)-trans-3-(5,6-dihydro-4H-pyrrolo[3,2,1-ij]quinolin-1-yl)-4-(1H-indol-3-yl)pyrrolidine-2,5-dione in combination with cisplatin in pancreatic cancer.
smiles,measurement,setting,value
"O=C1NC(=O)[C@@H](c2cn3c4c(cccc24)CCC3)[C@@H]1c1c[nH]c2ccccc12 [Agent A, (−)-trans-3-(5,6-dihydro-4H-pyrrolo[3,2,1-ij]quinolin-1-yl)-4-(1H-indol-3-yl)pyrrolidine-2,5-dione]",anti-proliferative effects in combination with sorafenib,"breast, cervical, lung, small cell lung, non-small cell lung cancer, melanoma, colon, pancreatic, renal and gastric/stomach cancer",synergistic
same,anti-proliferative effects in combination with sunitinib,gastric/stomach cancer,synergistic
same,anti-proliferative effect in combination,"in combination with sorafenib, sunitinib, erlotinib, gefitinib, cisplatin, carboplatin or capecitabine, various cancers, in vitro and in vivo",at least an additive
same,anti-proliferative effects in combination with erlotinib,"lung, small cell lung, non-small cell lung and colon cancer",synergistic
same,anti-proliferative effects in combination with cisplatin,pancreatic cancer,synergistic
